Test results as given in PMC5931096, “A Phase I study of the novel immunomodulatory agent PG545 (pixatimod) in subjects with advanced solid tumours” (British Journal of Cancer, 2018).

Legend:
[1] = system: advanced solid malignancies; test: Clinical activity by RECIST 1.1; format: in vivo, human
Experimental: All patients were assessed for safety, those who received at least one dose of PG545 were evaluated for efficacy. Safety assessment included the incidence of all adverse events (AEs), irrespective of relationship to study drug, according to the National Cancer Institute Common Terminology Criteria for Adverse Events, version 4.0, and the incidence of patients experiencing dose modifications and/or premature discontinuation of study drug. Dose-limiting toxicities (DLTs) used to determine the MTD were defined as occurring during Cycle 1 of treatment only and related to PG545 according to investigator assessment. If no DLT occurred in the first three subjects, the next three-subject cohort was enrolled at the next highest available dose level. If a single DLT occurred, an additional three subjects was enrolled at the same dose level. Dose escalation continued until two subjects of the cohort experienced a DLT; this was defined as the toxic dose level. The dose-escalation phase was completed and MTD determined by reducing the dose to the next lowest dose compared to the toxic dose and expanding this cohort to at least 6 subjects.
Subjects with measurable disease were assessed by computed tomography at baseline and every 8 weeks according to Response Evaluation Criteria in Solid Tumours (RECIST), version 1.1 criteria.

pDC and NK cells = test: Flow cytometry of PBMC for DC and NK cell activation; format: in vivo, human
Experimental: Plasma and peripheral blood mononuclear cell (PBMC) samples were obtained at various points for PD assessment with the exception of the 25 mg cohort, where PBMC were not collected. Plasma samples were analysed for the concentration of various markers, including cytokines, chemokines and heparanase using commercial ELISA (LifeSpan Biosciences, Seattle, WA), and array kits (Quansys, Logan, UT).
Cryopreserved PBMC samples were analysed by flow cytometry for changes in abundance and activation status of DC and NK cells at day 3 post-treatment compared with pre-dose samples (day 1). Given the stimulatory nature of PG545 via TLR9 reported in mice,[18] efforts were primarily focussed on the assessments of pDC and NK cells though certain subjects with available sample underwent additional analyses. To assess pDC, cells were stained with antibodies to HLADR-peCy7, CD303-FITC, IFNα-647 (BD Biosciences, Franklin Lakes, NJ). To assess NK cells, cells were stained with antibodies to CD335-PE, CD3-APC, IFNγ-FITC (BD Biosciences). All intracellular cytokine staining samples were stimulated by 100 ng/mL PMA, 100 ng/mL ionomycin and 5 μg/mL Brefeldin A for 4 h at 37 °C. Samples were acquired using FACSCanto flow cytometers (BD Biosciences).

Q: With CC(C)CCC[C@@H](C)[C@H]1CC[C@H]2[C@@H]3CC[C@H]4C[C@@H](O[C@@H]5O[C@H](COS(=O)(=O)O)[C@@H](O[C@H]6O[C@H](COS(=O)(=O)O)[C@@H](O[C@H]7O[C@H](COS(=O)(=O)O)[C@@H](O[C@H]8O[C@H](COS(=O)(=O)O)[C@@H](OS(=O)(=O)O)[C@H](OS(=O)(=O)O)[C@H]8OS(=O)(=O)O)[C@H](OS(=O)(=O)O)[C@H]7OS(=O)(=O)O)[C@H](OS(=O)(=O)O)[C@H]6OS(=O)(=O)O)[C@H](OS(=O)(=O)O)[C@H]5OS(=O)(=O)O)CC[C@]4(C)[C@H]3CC[C@]12C [PG545] as the molecule, how does the “Estimated median duration of SD” value ([1]; 95% confidence interval from 39 days to 62 days) read?
A: 57 days

Q: What about the Disease control rate ([1]; evaluable subjects (six of sixteen), at 8 weeks) of the same molecule?
A: 38%

Q: What about the Best response ([1]; human, in vivo) of the same molecule?
A: stable disease up to 24 weeks

Q: What about the Objective responses ([1]; monotherapy) of the same molecule?
A: No objective responses were reported

Q: And the “Patients with stable disease (SD) at 8 weeks” value ([1]; of sixteen patients assessed, RECIST 1.1)?
A: six

Q: And the “pDC and NK cell activation parameters” value (pDC and NK cells; 150 mg cohort)?
A: unaffected or modestly responsive

Q: What about the “Subjects with at least two-fold increased numbers of activated pDC or NK cells” value (pDC and NK cells; 50 and 100 mg, 2 days after initial dose) of the same molecule?
A: six of the ten
